According to publication PMC3203319 (The Journal of antibiotics, 2011):
≈ marks a conversion by molar mass, not a printed value.

Experiments:
[1] = test system: MSSA; experiment: MIC assay with 50% mouse serum added; type: cell-based, S. aureus; details: fold shift in MIC with 50% mouse serum
[2] = test system: MRSA; experiment: MIC assay with 50% human serum added; type: cell-based, S. aureus; details: fold shift in MIC with 50% human serum
[3] = test system: S.aureus ATCC 33591; experiment: MIC, MRSA panel; type: cell-based; details: Staphylococcus aureus, ATCC33591|MRSA
[4] = test system: S.aureus COL; experiment: MIC, MRSA panel; type: cell-based; details: Staphylococcus aureus
[5] = test system: S.aureus BK 2384; experiment: MIC, MRSA panel; type: cell-based; details: Staphylococcus aureus
[6] = test system: S.aureus BSA 643; experiment: MIC, MRSA panel; type: cell-based; details: Staphylococcus aureus
[7] = test system: S.aureus BSA 678; experiment: MIC, MRSA panel; type: cell-based; details: Staphylococcus aureus
[8] = test system: S.aureus NY 2746; experiment: MIC, MRSA panel; type: cell-based; details: Staphylococcus aureus
[9] = test system: S.aureus ACH-0231; experiment: MIC, MRSA panel; type: cell-based; details: Staphylococcus aureus
[10] = test system: S.aureus ACH-0232; experiment: MIC, MRSA panel; type: cell-based; details: Staphylococcus aureus
[11] = test system: S.epidermidis (MS) SE42; experiment: MIC, Gram-positive panel; type: cell-based; details: Staphylococcus epidermidis
[12] = test system: S.haemolyticus (MS) ACH-0013; experiment: MIC, Gram-positive panel; type: cell-based; details: Staphylococcus haemolyticus
[13] = test system: E.faecalis ATCC 29212; experiment: MIC, Gram-positive panel; type: cell-based; details: Enterococcus faecalis, ATCC29212
[14] = test system: E.faecium ATCC 49032; experiment: MIC, Gram-positive panel; type: cell-based; details: Enterococcus faecium, ATCC49032
[15] = test system: S.epidermidis (FQR) ACH-0082; experiment: MIC, Gram-positive panel; type: cell-based; details: Staphylococcus epidermidis
[16] = test system: E.faecalis (VR) ATCC 700802; experiment: MIC, Gram-positive panel; type: cell-based; details: Enterococcus faecalis, ATCC700802
[17] = test system: E.faecium (VR) ATCC 700221; experiment: MIC, Gram-positive panel; type: cell-based; details: Enterococcus faecium, ATCC700221
[18] = test system: E.cloacae ACH-0008; experiment: MIC, Gram-negative panel; type: cell-based; details: Enterobacter cloacae, ACH0008
[19] = test system: K.pneumoniae ATCC 13883; experiment: MIC, Gram-negative panel; type: cell-based; details: Klebsiella pneumoniae, ATCC13883
[20] = test system: S.marcescens ACH-0009; experiment: MIC, Gram-negative panel; type: cell-based; details: Serratia marcescens, ACH0009
[21] = test system: S.typhimurium ATCC 14028; experiment: MIC, Gram-negative panel; type: cell-based; details: Salmonella enterica, ATCC14028|TYPHIMURIUM
[22] = test system: A.baumanii ATCC 9957; experiment: MIC, Gram-negative panel; type: cell-based; details: Acinetobacter baumannii, ATCC9957
[23] = test system: E.coli 1GC2; experiment: MIC, Gram-negative panel; type: cell-based; details: Escherichia coli
[24] = test system: E.coli FQR 362265; experiment: MIC, Gram-negative panel; type: cell-based; details: Escherichia coli, FQR362265
[25] = test system: P.aeruginosa FQR 467296; experiment: MIC, Gram-negative panel; type: cell-based; details: Pseudomonas aeruginosa, FQR467296
[26] = test system: S. aureus ATCC 29213; experiment: Time-kill study; type: cell-based; details: 2, 4 and 8 times the MIC, 24 h time course
[27] = test system: C. albicans; experiment: MIC against yeast; type: cell-based; details: Candida albicans, read-out: MIC C. albicans
[28] = test system: DNA, RNA, and protein synthesis in S. aureus ATCC 29213; experiment: Macromolecular synthesis assays; type: cell-based; details: 10× MIC, 20 min incubation
[29] = test system: rat red blood cell; experiment: Hemolysis, rat red blood cell assay; type: cell-based; details: rat red blood cells, data not shown
[30] = Plasma stability; type: in vitro ADME; details: human
[31] = Plasma stability; type: in vitro ADME; details: dog
[32] = Plasma stability; type: in vitro ADME; details: rat
[33] = Plasma stability; type: in vitro ADME; details: monkey
[34] = Plasma stability; type: in vitro ADME; details: mouse
[35] = Stability in dosing vehicle; type: physicochemical; details: potassium phosphate at pH 7.4, after 4 h
[36] = Liver microsome stability; type: in vitro ADME; details: human liver microsomes (HLM)
[37] = Liver microsome stability; type: in vitro ADME; details: rat liver microsomes (RLM)
[38] = Liver S9 fraction stability; type: in vitro ADME, human
[39] = Liver S9 fraction stability; type: in vitro ADME; details: rat liver S9 fraction (RLS9)
[40] = test system: Gram-positive bacteria; experiment: MBC analysis, expanded panel of Gram-positive bacteria; type: cell-based; details: MIC = MBC

O=[N+]([O-])c1ccc(-c2nc3cccc(O)c3[nH]2)o1 [Compound 3e, 2-(5-Nitrofuran-2-yl)-3H-benzo[d]imidazole-4ol]
Fold Shift Mouse [1]: 4 ×
Fold Shift Human [2]: 4 ×
MIC [3]: 2 µg/mL (≈ 8.16 µM)
MIC [4]: 1 µg/mL (≈ 4.08 µM)
MIC [5]: 1 µg/mL (≈ 4.08 µM)
MIC [6]: 1 µg/mL (≈ 4.08 µM)
MIC [7]: 1 µg/mL (≈ 4.08 µM)
MIC [8]: 2 µg/mL (≈ 8.16 µM)
MIC [9]: 2 µg/mL (≈ 8.16 µM)
MIC [10]: 2 µg/mL (≈ 8.16 µM)
MIC [11]: 1 µg/mL (≈ 4.08 µM)
MIC [12]: 0.5 µg/mL (≈ 2.04 µM)
MIC [13]: 1 µg/mL (≈ 4.08 µM)
MIC [14]: 4 µg/mL (≈ 16.3 µM)
MIC [15]: 4 µg/mL (≈ 16.3 µM)
MIC [16]: 1 µg/mL (≈ 4.08 µM)
MIC [17]: 4 µg/mL (≈ 16.3 µM)
MIC [18]: 4 µg/mL (≈ 16.3 µM)
MIC [19]: 8 µg/mL (≈ 32.6 µM)
MIC [20]: 16 µg/mL (≈ 65.3 µM)
MIC [21]: 4 µg/mL (≈ 16.3 µM)
MIC [22]: > 64 µg/mL
MIC [23]: 16 µg/mL (≈ 65.3 µM)
MIC [24]: 4 µg/mL (≈ 16.3 µM)
MIC [25]: > 64 µg/mL
Time-kill result [26]: bactericidal
MIC [27]: > 64 µg/mL
inhibition of DNA, RNA and protein synthesis [28]: significantly inhibited DNA, RNA, and protein at nearly equivalent levels
hemolysis [29]: negative
half-life [30]: 4.5 h
half-life [31]: 5.6 h
half-life [32]: 3.9 h
half-life [33]: 2 h
half-life [34]: 3.6 h
stability in dosing vehicle [35]: no degradation
time to complete clearance [36]: ≤ 30 min
time to complete clearance [37]: ≤ 30 min
remaining ([38]; HLS9, after 60 min of incubation): 13%
half-life ([38]; human, liver S9 fraction): 0.21 h
clearance time [39]: < 30 min
bactericidal activity by MBC analysis [40]: bactericidal

CN[C@H](CC(C)C)C(=O)N[C@H]1C(=O)N[C@@H](CC(N)=O)C(=O)N[C@H]2C(=O)N[C@H]3C(=O)N[C@H](C(=O)N[C@H](C(=O)O)c4cc(O)cc(O)c4-c4cc3ccc4O)[C@H](O)c3ccc(c(Cl)c3)Oc3cc2cc(c3O[C@@H]2O[C@H](CO)[C@@H](O)[C@H](O)[C@H]2O[C@H]2C[C@](C)(N)[C@H](O)[C@H](C)O2)Oc2ccc(cc2Cl)[C@H]1O [Vancomycin, reference compound]
MIC [3]: 1 µg/mL (≈ 0.69 µM)
MIC [4]: 1 µg/mL (≈ 0.69 µM)
MIC [5]: 1 µg/mL (≈ 0.69 µM)
MIC [6]: 1 µg/mL (≈ 0.69 µM)
MIC [7]: 1 µg/mL (≈ 0.69 µM)
MIC [8]: 1 µg/mL (≈ 0.69 µM)
MIC [9]: 2 µg/mL (≈ 1.38 µM)
MIC [10]: 1 µg/mL (≈ 0.69 µM)
